These results are taken from US20260138961A1, “MODULATORS OF MITOCHONDRIAL DNA REPLICATION” (Pretzel Therapeutics, Inc., priority 2022, published 2026).

What is called AC50 is the concentration giving half of the maximal activity seen. Read a high AC50 as activity only at high concentration.

The target of this assay is T1, POLγA:Y955C (Homo sapiens, UniProt P54098, Y955C).
T1 sequence (P54098 1-1239 Y955C): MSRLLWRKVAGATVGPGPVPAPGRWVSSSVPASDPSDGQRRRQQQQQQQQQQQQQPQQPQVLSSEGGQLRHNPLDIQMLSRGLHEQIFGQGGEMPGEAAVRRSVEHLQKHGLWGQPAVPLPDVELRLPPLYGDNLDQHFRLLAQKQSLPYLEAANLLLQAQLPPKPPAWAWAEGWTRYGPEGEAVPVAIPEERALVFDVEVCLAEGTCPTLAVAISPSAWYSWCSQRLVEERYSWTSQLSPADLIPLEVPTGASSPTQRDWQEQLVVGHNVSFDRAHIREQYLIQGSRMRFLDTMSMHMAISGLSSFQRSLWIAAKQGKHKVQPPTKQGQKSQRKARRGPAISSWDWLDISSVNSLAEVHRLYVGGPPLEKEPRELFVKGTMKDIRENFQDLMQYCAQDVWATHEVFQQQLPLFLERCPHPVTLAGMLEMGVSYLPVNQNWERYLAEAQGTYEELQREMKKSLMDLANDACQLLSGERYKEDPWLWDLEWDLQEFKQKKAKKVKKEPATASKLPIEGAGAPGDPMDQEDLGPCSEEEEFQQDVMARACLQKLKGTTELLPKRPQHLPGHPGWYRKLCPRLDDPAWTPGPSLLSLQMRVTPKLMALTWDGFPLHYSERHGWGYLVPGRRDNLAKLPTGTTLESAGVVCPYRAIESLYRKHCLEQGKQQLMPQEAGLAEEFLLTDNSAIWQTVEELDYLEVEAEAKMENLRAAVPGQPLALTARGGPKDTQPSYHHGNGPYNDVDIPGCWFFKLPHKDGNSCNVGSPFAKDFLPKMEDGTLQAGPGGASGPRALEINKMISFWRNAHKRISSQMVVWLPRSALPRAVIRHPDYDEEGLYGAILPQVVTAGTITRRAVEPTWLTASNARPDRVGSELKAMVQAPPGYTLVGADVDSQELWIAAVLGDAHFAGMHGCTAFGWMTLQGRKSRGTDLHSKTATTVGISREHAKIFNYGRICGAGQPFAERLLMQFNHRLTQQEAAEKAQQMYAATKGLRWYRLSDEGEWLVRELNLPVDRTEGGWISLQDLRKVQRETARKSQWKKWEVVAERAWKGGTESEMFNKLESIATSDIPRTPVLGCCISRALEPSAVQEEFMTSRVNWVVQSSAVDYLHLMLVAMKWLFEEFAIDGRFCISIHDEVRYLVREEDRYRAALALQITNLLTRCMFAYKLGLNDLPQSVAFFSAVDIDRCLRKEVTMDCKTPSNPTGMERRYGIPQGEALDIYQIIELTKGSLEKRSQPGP
T1 sequence (Q9UHN1 1-485 partner): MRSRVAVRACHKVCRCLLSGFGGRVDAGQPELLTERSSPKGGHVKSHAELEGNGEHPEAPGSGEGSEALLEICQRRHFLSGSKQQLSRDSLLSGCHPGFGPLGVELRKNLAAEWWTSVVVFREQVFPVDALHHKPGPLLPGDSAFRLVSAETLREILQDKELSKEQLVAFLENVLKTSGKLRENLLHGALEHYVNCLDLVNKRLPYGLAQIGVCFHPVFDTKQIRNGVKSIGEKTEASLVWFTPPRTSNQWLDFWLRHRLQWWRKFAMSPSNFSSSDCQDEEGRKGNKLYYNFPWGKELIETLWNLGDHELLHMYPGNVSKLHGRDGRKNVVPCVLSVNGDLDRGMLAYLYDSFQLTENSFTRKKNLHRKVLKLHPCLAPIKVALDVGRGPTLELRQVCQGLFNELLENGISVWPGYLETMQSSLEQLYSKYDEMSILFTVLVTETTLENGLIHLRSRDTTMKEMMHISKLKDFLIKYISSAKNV
Kind of assay: DNA polymerization assay, POLγA:Y955C mutant. Format: biochemical. To be noted: stimulation of polymerase activity, primed M13mp18 ssDNA, 37° C. 2 hours. How it is done: DNA Polymerization Assay to Monitor Effects on Human Wildtype POLγ and Four Disease-Causing Mutant Variants of Human POLγ.
The ability of small molecules to stimulate the polymerase activity of POLγ was analyzed in a quantitative fluorescence SYBR Green I assay with fluorescence intensity (FI) readout.
In the presence of dNTPs, wild type human POLγ and mutant derivatives thereof were incubated with single-stranded, circular M13mp18 ssDNA hybridized to a short DNA oligonucleotide that functions as a primer for initiation of DNA synthesis. POLγ and mutant derivatives thereof will extend the primer and use the M13mp18 molecule as a template to synthesize long stretches of double-stranded DNA. SYBR Green I, which is a double-stranded DNA-binding dye, was used to quantify formation of double-stranded DNA in the reaction. When bound to double-stranded DNA, SYBR Green I fluorescence increases by up to 100-fold.
The assay was performed in the 384-well plate format. Upon addition of compounds, changes in double-stranded DNA synthesis activity can be monitored by following effects on fluorescent intensity.
The reactions also contained the accessory POLγB subunit, and the human mitochondrial single-stranded DNA binding protein (mtSSB).
The DNA template mixture used in the assay contained 0.5 nM primed M13 mp18 ssDNA, 400 nM mtSSB, 0.1 mM Tris-HCl (pH 8.0), 0.1 mM dNTP, 10 mM MgCl2, 0.1 mg/mL BSA, 1 mM TCEP solution, and 0.02% Triton X-100. The DNA template mixture for the wild type protein contained either 100 μM dNTP, 1 μM dNTP, or 0.1 μM dNTP, designated in Table 2 as 100 μM, 1 μM, and 0.1 μM, respectfully.
Microplates with compounds (0.1 μL in each well) to be tested in the assay were prepared from 10 mM compound stocks in 100% DMSO, and equal amounts of DMSO without any compound were added to positive and negative control wells.
The protein mixture was dispensed (5 μL into each well) into compound plates and incubated at 37° C. for 15 minutes. After incubation, 5 μL of the DNA template mixture was dispensed into each well. The plates were then incubated at 37° C. for 2 hours.
During incubation, a combined stop buffer and detection reagent solution was prepared. The buffer contained 25 mM EDTA (pH 8.0), 0.02% Triton X-100, and SYBR Green I [Invitrogen] diluted 10,000× (for fluorescent readout). EDTA will stop the enzymatic reaction by chelating magnesium ions.
With `Cc1csc(-c2cccc(NS(=O)(=O)c3cc(C)c(Cl)cc3C)c2)n1` [Example 20, 4-chloro-2,5-dimethyl-N-(3-(4-methylthiazol-2-yl)phenyl)benzenesulfonamide], the activity was half-maximal at 0.3 µM (AC50).

As to `Cc1cnc(-c2cccc(NS(=O)(=O)c3cc(C)c(Cl)cc3C)c2)s1` [Example 21, 4-chloro-2,5-dimethyl-N-(3-(5-methylthiazol-2-yl)phenyl)benzenesulfonamide], the activity was half-maximal at 1 µM (AC50).

The compound `Cc1ccc(C)c(S(=O)(=O)Nc2cccc(-c3nccs3)c2)c1` [Example 60] had an AC50 of 0.4 µM.

`Cc1cc(S(=O)(=O)Nc2cccc(-c3cc(C4CC4)[nH]n3)c2)c(C)cc1Cl` [Example 64, 4-chloro-N-(3-(5-cyclopropyl-1H-pyrazol-3-yl)phenyl)-2,5-dimethylbenzenesulfonamide] came in with an AC50 above 100 µM.

The compound `CC[C@@H]1CCCN1C(=O)c1cccc(NS(=O)(=O)c2cc(C)c(Cl)cc2C)c1` [Example 65, (R)-4-chloro-N-(3-(2-ethylpyrrolidine-1-carbonyl)phenyl)-2,5-dimethylbenzenesulfonamide] had an AC50 of 2 µM.

In turn, `Cc1cc(-c2cccc(NS(=O)(=O)c3cc(C)c(Cl)cc3C)c2)n[nH]1` [Example 66, 4-chloro-2,5-dimethyl-N-(3-(5-methyl-1H-pyrazol-3-yl)phenyl)benzenesulfonamide] displayed an AC50 of 2 µM.

`Cc1cc(S(=O)(=O)Nc2cccc(-c3cc[nH]n3)c2)c(C)cc1Cl` [Example 68, N-(3-(1H-pyrazol-3-yl)phenyl)-4-chloro-2,5-dimethylbenzenesulfonamide] returned an AC50 of 2 µM.

Regarding `Cc1cc(S(=O)(=O)Nc2ccc3ccn(C(C)C)c3c2)c(C)cc1Cl` [Example 69, 4-chloro-N-(1-isopropyl-1H-indol-6-yl)-2,5-dimethylbenzenesulfonamide], the AC50 was 0.4 µM.

Consider `Cc1nc2ccc(NS(=O)(=O)c3cc(C)c(Cl)cc3C)cc2o1` [Example 70, 4-chloro-2,5-dimethyl-N-(2-methylbenzo[d]oxazol-6-yl)benzenesulfonamide], for which the activity was half-maximal at 7 µM (AC50).

In the case of `Cc1cc2cc(NS(=O)(=O)c3cc(C)c(Cl)cc3C)ccc2[nH]1` [Example 184, 4-chloro-2,5-dimethyl-N-(2-methyl-1H-indol-5-yl)benzenesulfonamide], the activity was half-maximal at 2 µM (AC50).
